Experimental data: publication PMC8569681, “New Pyrimidine and Pyridine Derivatives as Multitarget Cholinesterase Inhibitors: Design, Synthesis, and In Vitro and In Cellulo Evaluation” (ACS Chemical Neuroscience, 2021)
“Also recorded” adds a separate entry of the source. Where two headings read alike, the source gives them in different places.

How the values were obtained:
[1] = target: T1, Electrophorus electricus AChE (EeAChE) (Electrophorus electricus, UniProt O42275); assay: Percent inhibition of EeAChE, Ellman's spectrophotometric method; type: biochemical; conditions: for inhibition at 90 µM: read-out: % inhibition vs EeAChE ± SD (90 uM), 90 uM; for inhibition at 900 µM: read-out: % inhibition vs EeAChE ± SD (900 uM), 900 uM; for inhibition at 0.09 µM: read-out: % inhibition vs EeAChE ± SD, [I] 90 nM; for inhibition at 0.9 µM: read-out: % inhibition vs EeAChE ± SD, [I] 900 nM
T1 construct: purchased Sigma-Aldrich (Milan, Italy)
Protocol: All other chemical and biological reagents and solvents used were of the highest analytical, commercially available grade. The water, utilized for the preparation of the phosphate buffer and of the compound solutions, was distilled and filtered on nylon membrane filters with a 0.2 μm pore size with the Millipore Filtration apparatus before each use. Micropipettes Labmate (BRAND Dig. 10–100 μL; Dig. 100–1000 μL; Dig. 0.1–2 μL) and Transferpette (HIGH TECH LAB LM200: 20–200 μL; LM5000: 1000–5000 μL) were used to collect the samples. The assays were carried out by a double beam UV–vis Lambda 40 Perkin Elmer spectrophotometer using optical polystyrene cuvettes (10 × 10 × 45 mm, 340–800 nm optical transparency); each measure was repeated at least in triplicate. […] The spectrophotometric method of Ellman[25] with minor modifications was used to evaluate the inhibition of ChEs. […] EeAChE and eqBChE were periodically tested to evaluate the effective enzymatic activity.
For all the synthesized compounds, the percentages of inhibition toward AChE of Electrophorus electricus (EeAChE) and equine BChE (eqBChE) were evaluated.
Three milliliters of a solution in 0.1 M phosphate buffer (pH = 7.4) containing DTNB (0.25 mM) and EeAChE (0.083 UmL^–1) or eqBChE (0.083 UmL^–1) was placed in a polystyrene cuvette of 1.0 cm path length; 1 μL of a […] With this solution, the blank was made. […] Each experiment was repeated at least in triplicate.

Aβ42 peptide = target: T2, Aβ42 peptide (Homo sapiens, UniProt P05067); assay: Inhibition of Aβ42 aggregation in intact E. coli cells, thioflavin-S; type: cell-based, Escherichia coli; conditions: [I] = 100 μM
T2 construct: expressed in transfected cells; host or cells: E. coli BL21 (DE3), pET28a
Protocol: The anti-aggregating effect of the tested compounds was monitored by a cell-based assay in intact Escherichia coli cells that overexpress either the Aβ42 peptide or tau protein, which upon overexpression form insoluble inclusion bodies that were stained with thioflavin-S, an amyloid specific dye.[36] The percentages of inhibition toward Aβ42 and tau aggregation were determined at an inhibitor concentration of 100 μM, and the obtained results are reported in Table 7.
E. coli competent cells BL21 (DE3) were transformed with the pET28a vector (Novagen, Inc., Madison, WI, USA) carrying the DNA sequence of Aβ42. Because of the addition of the initiation codon ATG in front of both genes, the overexpressed peptide contains an additional methionine residue at its N terminus. For overnight culture preparation, an amount of 10 mL of the M9 minimal medium containing 50 μg·mL^–1 of kanamycin was inoculated with a colony of BL21 (DE3) bearing the plasmid to be expressed at 37 °C. For expression of the Aβ42 peptide, the required volume of overnight culture to obtain 1:500 dilution was added into the fresh M9 minimal medium containing 50 μg·mL^–1 of kanamycin and 250 μM Th-S. The bacterial culture was grown at 37 °C and 250 rpm. When the cell density reached OD600 = 0.6, an amount of 980 μL of culture was transferred into Eppendorf tubes of 1.5 mL with 10 μL of each compound to be tested in DMSO and 10 μL of isopropyl 1-thio-β-D-galactopyranoside (IPTG) at 100 mM. The final concentration of the drug was fixed at 100 μM. The samples were grown overnight at 37 °C and 1400 rpm using a ThermoMixer (Eppendorf, Hamburg, Germany). As negative control (maximal amyloid presence), the same amount of DMSO without the drug was added in the sample. In parallel, non-induced samples (in the absence of IPTG) were also prepared and used as positive controls (non-amyloid presence). In addition, these samples were used to assess the potential intrinsic toxicity of the compounds and to confirm the correct bacterial growth.
Th-S (T1892) and other chemical reagents were purchased from Sigma (St. Louis, MO). The Th-S stock solution ([…]) was prepared in double-distilled water purified through a Milli-Q system (Millipore, USA). Th-S fluorescence and absorbance were tracked using a DTX 800 plate reader Multimode Detector equipped with a Multimode Analysis Software (Beckman-Coulter, USA). Filters of 430/35 and 485/20 nm were used for the excitation and emission wavelengths, respectively. Filters of 535/25 nm were also used for the absorbance determination. To normalize the Th-S fluorescence as a function of the bacterial concentration, OD600 was obtained using a Shimadzu UV-2401 PC UV–vis spectrophotometer (Shimadzu, Japan). Note that the fluorescence normalization was carried out considering as 100% the Th-S fluorescence of the bacterial cells expressing the peptide or protein in the absence of drug and 0% the Th-S fluorescence of the bacterial cells not expressing the peptide or protein. A minimum of five independent assays (with three replicates for assay) was performed for each tested compound. More assays were performed to obtain a SEM < 5% with a maximum of 10 independent assays.

[2] = target: T1, Electrophorus electricus AChE (EeAChE); assay: Inhibition constant and mechanism vs EeAChE, Dixon's method; type: biochemical; conditions: for inhibition mechanism on EeAChE: Dixon's plot, best fitting model; for α, EeAChE: mixed inhibition, α > 1 free enzyme, α < 1 enzyme–substrate complex; for Ki: three substrate and five inhibitor concentrations, read-out: Ki ± SD, EeAChE
Protocol: (§1) . The recorded data were analyzed with the enzyme kinetic module of SigmaPlot to find the best fitting model of inhibition using the linear regression analysis. The reference kinetic models used in the regression analysis were competitive, noncompetitive, uncompetitive, and mixed. Each determination was repeated five times, and incorrect values were discarded to reduce the standard deviation within the limit of 5%. In this way, the regression lines obtained have a linear regression coefficient (R^2) higher than 0.95. Dixon’s plots of all tested compounds are reported in the Supporting Information (Figures S1–S12).
(§2) 18, 22, 25, 26, 28, and 30 toward eqBChE). For each compound, a 500 μM stock solution was prepared in H2O/DMSO or in 10^–2 M HCl and diluted in water to prepare solutions of opportune concentrations to introduce in the cuvette volumes ranging from 30 to 100 μL, to obtain the desired final concentrations. The maximum amount of DMSO used for the preparation of the stock solution was calculated to have a DMSO content in cuvette <0.033%.
(§3) Three milliliters of 0.1 M phosphate buffer (pH = 7.4) containing DTNB (0.25 mM) and EeAChE (0.083 UmL^–1) or eqBChE (0.083 UmL^–1) was mixed with the opportune volume of the inhibitor solution to obtain a final inhibitor concentration in cuvette between 90 and 1800 nM. With this solution, the blank was made. […]. The absorbance variations were measured at 412 nm at 25 °C between 0.5 and 1.5 min.
(§4) To determine the inhibition constants (Ki) and the inhibition mechanisms, the rates of hydrolysis at three different concentrations of substrate in the presence of five different concentrations of inhibitor were measured.

equine BChE (eqBChE) = target: T3, equine BChE (eqBChE) (Equus caballus, UniProt P81908); assay: Inhibition constant and mechanism vs eqBChE, Dixon's method; type: biochemical; conditions: for inhibition mechanism on eqBChE: Dixon's plot, best fitting model; for α, eqBChE: mixed inhibition, α > 1 free enzyme, α < 1 enzyme–substrate complex; for Ki: three substrate and five inhibitor concentrations, read-out: Ki ± SD, eqBChE
T3 construct: purchased Sigma-Aldrich (Milan, Italy)
Protocol: as §1, §2, §3, §4

[3] = read-out: % inhibition vs EeAChE ± SD (9 uM), 9 uM, supplement csv
[4] = 0.0833 U/mL enzyme, 100 μM acetylthiocholine
[5] = read-out: % inhibition vs EeAChE ± SD, [I] 9 μM, 0.0833 U/mL enzyme, 100 μM acetylthiocholine

T2 sequence (P05067 672-713 limits assumed): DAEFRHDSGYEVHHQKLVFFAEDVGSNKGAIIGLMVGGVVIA
T1 sequence (O42275 24-633): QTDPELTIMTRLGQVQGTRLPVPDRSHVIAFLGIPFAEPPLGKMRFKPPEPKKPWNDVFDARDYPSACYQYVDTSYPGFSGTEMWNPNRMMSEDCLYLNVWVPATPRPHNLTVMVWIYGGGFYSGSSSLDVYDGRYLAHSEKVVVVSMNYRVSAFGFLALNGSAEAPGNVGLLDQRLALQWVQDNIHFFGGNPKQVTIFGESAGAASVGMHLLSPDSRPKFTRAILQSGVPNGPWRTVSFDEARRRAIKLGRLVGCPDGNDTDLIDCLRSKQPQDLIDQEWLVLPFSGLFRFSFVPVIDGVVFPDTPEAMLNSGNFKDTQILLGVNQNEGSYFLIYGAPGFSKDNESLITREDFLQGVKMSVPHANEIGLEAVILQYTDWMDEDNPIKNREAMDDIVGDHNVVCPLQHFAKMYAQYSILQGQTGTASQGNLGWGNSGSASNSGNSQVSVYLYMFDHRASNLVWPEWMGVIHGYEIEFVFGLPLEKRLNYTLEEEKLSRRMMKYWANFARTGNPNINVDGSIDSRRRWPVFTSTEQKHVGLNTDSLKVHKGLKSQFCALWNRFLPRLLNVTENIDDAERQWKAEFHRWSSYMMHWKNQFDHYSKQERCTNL
T3 sequence (P81908 whole entry): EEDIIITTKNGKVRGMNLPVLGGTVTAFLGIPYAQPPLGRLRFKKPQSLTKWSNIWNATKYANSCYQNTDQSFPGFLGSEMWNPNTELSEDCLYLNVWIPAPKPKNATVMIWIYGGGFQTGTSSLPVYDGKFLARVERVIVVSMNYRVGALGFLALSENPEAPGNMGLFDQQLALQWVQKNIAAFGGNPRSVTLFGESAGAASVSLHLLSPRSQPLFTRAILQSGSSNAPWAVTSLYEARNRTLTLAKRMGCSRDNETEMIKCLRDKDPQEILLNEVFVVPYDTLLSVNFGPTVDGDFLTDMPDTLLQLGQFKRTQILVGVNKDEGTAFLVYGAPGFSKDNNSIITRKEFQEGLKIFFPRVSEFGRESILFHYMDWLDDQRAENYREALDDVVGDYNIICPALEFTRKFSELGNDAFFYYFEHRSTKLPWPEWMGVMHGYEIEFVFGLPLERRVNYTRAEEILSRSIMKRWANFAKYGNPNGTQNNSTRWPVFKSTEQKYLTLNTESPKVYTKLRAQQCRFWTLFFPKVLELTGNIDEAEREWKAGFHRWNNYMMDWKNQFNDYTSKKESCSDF

| SMILES | inhibition at 9 µM [1, 3] | inhibition at 90 µM ([1]; supplement csv) | inhibition at 900 µM ([1]; supplement csv) | inhibition at 0.09 µM [1, 4] | inhibition at 0.9 µM [1, 4] | inhibition at 9 µM [1, 5] | inhibition at 100 µM (Aβ42 peptide) | inhibition mechanism on EeAChE [2] | α, EeAChE [2] | Ki [2] | inhibition mechanism on eqBChE (equine BChE (eqBChE)) | α, eqBChE (equine BChE (eqBChE)) | Ki (equine BChE (eqBChE)) |
| --- | --- | --- | --- | --- | --- | --- | --- | --- | --- | --- | --- | --- | --- |
| c1ccc(CNCCCCCNc2ncccn2)cc1 [Compound 9, N^1-Benzyl-N^5-(pyrimidin-2-yl)pentane-1,5-diamine] | 90.2 ± 0.7% | 14.1 ± 1.4% | 57.1 ± 0.9% | 14.1 ± 1.4% | 40 to 60% | ~90% | 5.8% | mixed | 7.5 | 312 ± 108 nM | – | – | – |
| c1ccc(CNCCCCCCNc2ncccn2)cc1 [Compound 13, N^1-Benzyl-N^6-(pyrimidin-2-yl)hexane-1,6-diamine] | 92.9 ± 0.4% | 19.2 ± 1.4% | 60.3 ± 1.5% | 19.2 ± 1.4% | – | ~90% | 21% | mixed | 0.3 | 426 ± 132 nM | – | – | – |
| COc1cc(CNCCCCCCNc2ncccn2)ccc1O [Compound 18, 2-Methoxy-4-(((6-(pyrimidin-2-ylamino)hexyl)amino)methyl)phenol] | 59.5 ± 3.6% | – | 14.7 ± 0.5% | – | 14.7 ± 0.5% | 60 to 70% | 1.7% | – | – | – | mixed | 7.3 | 3030 ± 604 nM |
| Oc1cccc(CNCCCCCCNc2ncccn2)c1 [Compound 19, 3-(((6-(Pyrimidin-2-ylamino)hexyl)amino)methyl)phenol] | 84.4 ± 0.3% | – | 39 ± 1.9% | – | 40 to 60% | ~90% | 16.7% | uncompetitive; also recorded: uncomp | – | 509 ± 18 nM | – | – | – |
| Oc1cccc(CNCCCCCCNc2ncccn2)c1O [Compound 20, 3-(((6-(Pyrimidin-2-ylamino)hexyl)amino)methyl)benzene-1,2-diol] | 90.5 ± 0.5% | 12.8 ± 1.9% | 53.6 ± 3.1% | 12.8 ± 1.9% | 40 to 60% | ~90% | 7.2% | – | – | – | – | – | – |
| c1cnc(NCCCCCCNCc2c[nH]c3ccccc23)nc1 [Compound 22, N^1-((1H-Indol-3-yl)methyl)-N^6-(pyrimidin-2-yl)hexane-1,6-diamine] | 69.2 ± 1.4% | – | 16.4 ± 1.9% | – | 16.4 ± 1.9% | 60 to 70% | 9.7% | – | – | – | mixed | 10 | 99 ± 71 nM |
| c1ccc(CNCCCCCNc2ccccn2)cc1 [Compound 23, N^1-Benzyl-N^5-(pyridin-2-yl)pentane-1,5-diamine] | 53.5 ± 1.4% | 56.5 ± 3% | 10.3 ± 0.8% | – | 10.3 ± 0.8% | 53.5 ± 1.4% | 10.4% | mixed | 2.2 | 743 ± 316 nM | – | – | – |
| Brc1ccc(CNCCCCCCNc2ccccn2)cc1 [Compound 26, N^1-(4-Bromobenzyl)-N^6-(pyridin-2-yl)hexane-1,6-diamine] | 23.5 ± 2.2% | 76.8 ± 0.5% | – | – | – | 24 to 30% | 7.3% | – | – | – | mixed | 0.5 | 3460 ± 1480 nM |
| COc1cc(CNCCCCCCNc2ccccn2)ccc1O [Compound 30, 2-Methoxy-4-(((6-(pyridin-2-ylamino)hexyl)amino)methyl)phenol] | 61.8 ± 1.9% | 90.9 ± 0.6% | 17.3 ± 0.6% | – | 17.3 ± 0.6% | ~60% | 13.6% | – | – | – | mixed | 1.4 | 1100 ± 189 nM |
